The record followed here is patent US20110034510A1, “ENANTIOMER-ENRICHED ALPHA-,OMEGA-AMINO ALCOHOL DERIVATIVES, THEIR PRODUCTION AND USE AS INSECT- AND MITE-REPELLING AGENTS” (SALTIGO GMBH, priority 2006, published 2011).

One assay deals with Aedes aegypti. The assay can be described thus: Repellent test on a guinea pig (Aedes aegypti). The following applies: shaved guinea pig back (50 cm^2) treated with 0.4 ml of solution, 3 parts by weight active ingredient in 100 parts by volume ethanol; bites observed 10 minutes, repeated hourly, maximum 9 hours. Format: in vivo. The protocol: A) Repellent Test on a Guinea Pig
Test Animal: Aedes aegypti (Imagines)
3 parts by weight of active ingredient are taken up in 100 parts by volume of solvent
A guinea pig whose back has been shaved in an area of 50 cm^2 is accommodated in a box such that only the shaved area is accessible to the mosquitoes.
It is observed for 10 minutes how many mosquitoes bite the guinea pig. Subsequently, it is removed and the test is repeated after 1 hour. The experiment is performed for a maximum of 9 hours or until the effect ceases.

The subject of another assay is mosquitoes. Kind of assay: Repellent test against mosquitoes on the human lower arm. Format: in vivo. The settings on record: compared to the standard racemic mixture; 150 μl test product on 90 cm^2 of human lower arm; 3-minute exposure every hour for up to 8 hours. An excerpt:
B) Repellent Effectiveness of Formulations for Use Against Mosquitoes on the Human Arm: […]
The insects, as an actively biting population (approx. 1000 mosquitoes of both genders), are kept in cages (length 90 cm, width 30 cm, height 40 cm, side walls made of gauze) which have two light fabric gates on the front side. The insects have been fed exclusively with sugared water (10% Dextropur). The age of the insects is at least 7 days; the number of insects is made up twice per week by 3-day old fully grown insects.
The low electrical illumination of the cage is active from 6 am to 6 pm, with light from 6 pm to 6 am. The temperature is 25-27° C.; the relative air humidity is 50-70%.
The lower arms of the test subjects are washed with unperfumed soap, rinsed with water, then rinsed with a solution of 70% ethanol and 30% water, and dried with a towel.
90 cm^2 of each lower arm of a test subject is rubbed uniformly with 150 μl (or 150 mg) of the test product. As soon as the formulation is dry (after approx. 5 minutes), a sleeve with an opening of 3.1-8 cm (25 cm^2) is bound around the arm such that the opening is completely over the treated surface. The corners of the opening of the sleeve have likewise been rubbed with the test material (2000) in a width of 1 cm in order to prevent bites at the corners. The area above the sleeve has been protected with a towel through which the mosquitoes cannot penetrate. Hands are protected with latex gloves.
Both arms are introduced into the cage through the fabric gate, and the number of bites (and landings, if necessary) per arm is noted within a 3-minute test period. The test is repeated every hour for up to 8 hours, or ended beforehand if the effect ceases (3 or more bites within 3 minutes or during 2 successive test sequences). Each test consists of three to 5 test subjects.

`CC[C@@H](C)OC(=O)N1CCCC[C@@H]1CCO` (single isomer, unassigned): the “Protection time” value in the assay with Aedes aegypti is on record as 4.4 h. The “Increase in the protection time* in %” value with mosquitoes came to 3%.
For the compound `CC[C@H](C)OC(=O)N1CCCC[C@@H]1CCO` (stereo in doubt) [1-[(S)-sec-butyloxycarbonyl]-2-(R)-(+)-(2-hydroxyethyl)piperidine], in the assay on Aedes aegypti, the “Protection time” value is listed as 4.9 h. The “Increase in the protection time* in %” value in the assay with mosquitoes came out at 0%.
Turning to `CC[C@H](C)OC(=O)N1CCCC[C@H]1CCO` [1-[(S)-sec-butyloxycarbonyl]-2-(S)-(2-hydroxyethyl)piperidine], the “Protection time” value in the assay with Aedes aegypti is reported as 3.9 h. Moreover, the “Increase in the protection time* in %” value with mosquitoes came to 0%.
In the case of `CCC(C)OC(=O)N1CCCCC1CCO` (stereo in doubt) [1-[(R)-sec-butyloxycarbonyl]-2-(S)-(+)-(2-hydroxyethyl)piperidine], in the assay on Aedes aegypti, the “Protection time” value is 3.4 h. Also, the “Increase in the protection time* in %” value with mosquitoes is 12%.
